{"source": "patent US20070049564A1", "about": "(Wyeth, priority 2005, published 2007)", "assay_in_all_cases": "MIC, broth microdilution", "key": {"S. aureus GC 6469": {"test_system": "S. aureus GC 6469", "conditions": "Staphylococcus aureus, GC6469, S. aureus GC 6469"}, "S. pyogenes GC 4563": {"test_system": "S. pyogenes GC 4563", "conditions": "Streptococcus pyogenes, GC4563, S. pyogenes GC 4563"}, "S. aureus GC 6467": {"test_system": "S. aureus GC 6467", "conditions": "Staphylococcus aureus, GC6467, S. aureus GC 6467", "experimental": "(§1) Antimicrobial susceptibility testing. The in vitro activities of the antibiotics are determined by the broth microdilution method as recommended by the National Committee for Clinical Laboratory Standards (NCCLS) (1). Mueller-Hinton II broth (MHBII)(BBL Cockeysville, Md.) is the medium employed in the testing procedures. Microtiter plates containing serial dilutions of each antimicrobial agent are inoculated with each organism to yield the appropriate density (10^5 CFU/ml) in a 100 μl final volume. The plates are incubated for 18-22 hours at 35° C. in ambient air.\nRepresentative compounds were first incubated in mouse serum for an hour prior to the in vitro testing against a panel of selected gram-positive and gram-negative bacteria strains. All compounds were also pre-incubated in water for an hour prior to testing as control."}, "S. aureus GC 6335": {"test_system": "S. aureus GC 6335", "conditions": "Staphylococcus aureus, GC6335, S. aureus GC 6335"}, "E. coli GC 3226": {"test_system": "E. coli GC 3226", "conditions": "Escherichia coli, GC3226, E. coli GC 3226", "experimental": "as §1\n(§2) Representative compounds were first incubated in mouse serum for an hour prior to the in vitro testing against a panel of selected gram-positive and gram-negative bacteria strains. All compounds were also pre-incubated in water for an hour prior to testing as control. Representative compounds of Formula I were incubated in human serum prior to MIC determination."}, "E. coli GC 2203": {"test_system": "E. coli GC 2203", "conditions": "Escherichia coli, GC2203, E. coli GC 2203"}, "E. coli GC 4559": {"test_system": "E. coli GC 4559", "conditions": "Escherichia coli, GC4559, E. coli GC 4559"}, "S. agalactiae GC 4564": {"test_system": "S. agalactiae GC 4564", "conditions": "Streptococcus agalactiae, GC4564, S. agalactiae GC 4564", "experimental": "as §1, §2"}, "E. coli GC 2233": {"test_system": "E. coli GC 2233", "conditions": "Escherichia coli, GC2233, E. coli GC 2233"}, "E. coli GC 6465": {"test_system": "E. coli GC 6465", "conditions": "Escherichia coli, GC6465, E. coli GC 6465"}, "E. coli GC 1073": {"test_system": "E. coli GC 1073", "conditions": "Escherichia coli, GC1073, E. coli GC 1073", "experimental": "as §1, §2"}, "S. typhimurium GC 2172": {"test_system": "S. typhimurium GC 2172", "conditions": "Salmonella enterica, TYPHIMURIUM, S. typhimurium GC 2172"}, "S. aureus GC 1079": {"test_system": "S. aureus GC 1079", "conditions": "Staphylococcus aureus, GC1079, S. aureus GC 1079"}, "E. faecium GC 4556": {"test_system": "E. faecium GC 4556", "conditions": "Enterococcus faecium, GC4556, E. faecium GC 4556"}, "E. coli GC 2270": {"test_system": "E. coli GC 2270", "conditions": "Escherichia coli, GC2270, E. coli GC 2270"}, "E. coli GC 4560": {"test_system": "E. coli GC 4560", "conditions": "Escherichia coli, GC4560, E. coli GC 4560", "experimental": "as §1, §2"}, "E. coli GC 2235": {"test_system": "E. coli GC 2235", "conditions": "Escherichia coli, GC2235, E. coli GC 2235"}, "E. coli GC 2271": {"test_system": "E. coli GC 2271", "conditions": "Escherichia coli, GC2271, E. coli GC 2271"}, "S. aureus GC 6466": {"test_system": "S. aureus GC 6466", "conditions": "Staphylococcus aureus, GC6466, S. aureus GC 6466"}, "E. coli GC 2234": {"test_system": "E. coli GC 2234", "conditions": "Escherichia coli, GC2234, E. coli GC 2234"}}}
{"smiles": "CCCN(CC(=O)Nc1cc(N(C)C)c2c(c1O)C(=O)C1=C(O)[C@]3(O)C(=O)C(C(N)=O)=C(O)[C@@H](N(C)C)[C@@H]3C[C@@H]1C2)C(=O)OCOC(=O)C(C)C", "note": "[Example 10, ({[(2-{[(5aR,6aS,7S,10aS)-9-(aminocarbonyl)-4,7-bis(dimethylamino)-1,8,10a,11-tetrahydroxy-10,12-dioxo-5,5a,6,6a,7,10,10a,12-octahydrotetracen-2-yl]amino}-2-oxoethyl)(propyl)amino]carbonyl}oxy)methyl 2-methylpropanoate]", "values": [{"measurement": "MIC", "setting": "S. aureus GC 6469; Mouse Serum pre-incubation", "value": 1, "unit": "µg/mL"}, {"measurement": "MIC", "setting": "S. aureus GC 6469; Water pre-incubation", "value": 2, "unit": "µg/mL"}, {"measurement": "MIC", "setting": "S. pyogenes GC 4563; Mouse Serum pre-incubation", "value": "< 0.06", "unit": "µg/mL"}, {"measurement": "MIC", "setting": "S. pyogenes GC 4563; Water pre-incubation", "value": "< 0.06", "unit": "µg/mL"}, {"measurement": "MIC", "setting": "S. aureus GC 6467; Mouse Serum pre-incubation", "value": 2, "unit": "µg/mL"}, {"measurement": "MIC", "setting": "S. aureus GC 6467; Water pre-incubation", "value": 2, "unit": "µg/mL"}, {"measurement": "MIC", "setting": "S. aureus GC 6335; Mouse Serum pre-incubation", "value": 0.25, "unit": "µg/mL"}, {"measurement": "MIC", "setting": "S. aureus GC 6335; Water pre-incubation", "value": 0.5, "unit": "µg/mL"}, {"measurement": "MIC", "setting": "E. coli GC 3226; Mouse Serum pre-incubation", "value": 0.5, "unit": "µg/mL"}, {"measurement": "MIC", "setting": "E. coli GC 3226; Water pre-incubation", "value": 16, "unit": "µg/mL"}, {"measurement": "MIC", "setting": "E. coli GC 2203; Mouse Serum pre-incubation", "value": 0.5, "unit": "µg/mL"}, {"measurement": "MIC", "setting": "E. coli GC 2203; Water pre-incubation", "value": 8, "unit": "µg/mL"}, {"measurement": "MIC", "setting": "E. coli GC 4559; Mouse Serum pre-incubation", "value": 0.5, "unit": "µg/mL"}, {"measurement": "MIC", "setting": "E. coli GC 4559; Water pre-incubation", "value": 16, "unit": "µg/mL"}, {"measurement": "MIC", "setting": "S. agalactiae GC 4564; Mouse Serum pre-incubation", "value": "< 0.06", "unit": "µg/mL"}, {"measurement": "MIC", "setting": "S. agalactiae GC 4564; Water pre-incubation", "value": 0.12, "unit": "µg/mL"}, {"measurement": "MIC", "setting": "E. coli GC 2233; Mouse Serum pre-incubation", "value": 0.5, "unit": "µg/mL"}, {"measurement": "MIC", "setting": "E. coli GC 2233; Water pre-incubation", "value": 8, "unit": "µg/mL"}, {"measurement": "MIC", "setting": "E. coli GC 6465; Mouse Serum pre-incubation", "value": 8, "unit": "µg/mL"}, {"measurement": "MIC", "setting": "E. coli GC 6465; Water pre-incubation", "value": "> 64", "unit": "µg/mL"}, {"measurement": "MIC", "setting": "E. coli GC 1073; Mouse Serum pre-incubation", "value": 0.5, "unit": "µg/mL"}, {"measurement": "MIC", "setting": "E. coli GC 1073; Water pre-incubation", "value": 16, "unit": "µg/mL"}, {"measurement": "MIC", "setting": "S. typhimurium GC 2172; Mouse Serum pre-incubation", "value": 4, "unit": "µg/mL"}, {"measurement": "MIC", "setting": "S. typhimurium GC 2172; Water pre-incubation", "value": "> 64", "unit": "µg/mL"}, {"measurement": "MIC", "setting": "S. aureus GC 1079; Mouse Serum pre-incubation", "value": 0.5, "unit": "µg/mL"}, {"measurement": "MIC", "setting": "S. aureus GC 1079; Water pre-incubation", "value": 1, "unit": "µg/mL"}, {"measurement": "MIC", "setting": "E. faecium GC 4556; Mouse Serum pre-incubation", "value": 0.25, "unit": "µg/mL"}, {"measurement": "MIC", "setting": "E. faecium GC 4556; Water pre-incubation", "value": 0.5, "unit": "µg/mL"}, {"measurement": "MIC", "setting": "E. coli GC 2270; Mouse Serum pre-incubation", "value": 0.5, "unit": "µg/mL"}, {"measurement": "MIC", "setting": "E. coli GC 2270; Water pre-incubation", "value": 8, "unit": "µg/mL"}, {"measurement": "MIC", "setting": "E. coli GC 4560; Mouse Serum pre-incubation", "value": 0.12, "unit": "µg/mL"}, {"measurement": "MIC", "setting": "E. coli GC 4560; Water pre-incubation", "value": 0.12, "unit": "µg/mL"}, {"measurement": "MIC", "setting": "E. coli GC 2235; Mouse Serum pre-incubation", "value": 0.25, "unit": "µg/mL"}, {"measurement": "MIC", "setting": "E. coli GC 2235; Water pre-incubation", "value": 4, "unit": "µg/mL"}, {"measurement": "MIC", "setting": "E. coli GC 2271; Mouse Serum pre-incubation", "value": 0.25, "unit": "µg/mL"}, {"measurement": "MIC", "setting": "E. coli GC 2271; Water pre-incubation", "value": 8, "unit": "µg/mL"}, {"measurement": "MIC", "setting": "S. aureus GC 6466; Mouse Serum pre-incubation", "value": 0.12, "unit": "µg/mL"}, {"measurement": "MIC", "setting": "S. aureus GC 6466; Water pre-incubation", "value": 0.12, "unit": "µg/mL"}, {"measurement": "MIC", "setting": "E. coli GC 2234; Mouse Serum pre-incubation", "value": 0.5, "unit": "µg/mL"}, {"measurement": "MIC", "setting": "E. coli GC 2234; Water pre-incubation", "value": 8, "unit": "µg/mL"}]}
